Data on 2 compounds can be found in patent publication US20030110524A1, “TRANSGENIC ORGANISMS AND THEIR USES” (priority 1997, published 2003).

Experiment [1] concerns lung fibroblast cells derived from control rats. In words: Survival of lung fibroblast cells from control rats with drugs. The class given is cell-based, rat. As to conditions: for Survival of lung fibroblast cells (related to number of cells in control cultures without drug): control rat cells, drugs added at day 2, geneticin 400 μg/ml, 5FC 100 μg/ml. The protocol:
(§1) Fibroblast cultures derived from lung of adult CD2/neo^r, TG/TK/neo^r and control animals were produced and expanded by routine methods (Freshney (1987), Alan R. Liss, New York). Twenty-four hours after plating, geneticin (400 μg/ml) was added to cultures originating from both types of transgenic rats and from control rats, and replaced every three days with fresh medium. When required, cells were subcultured (1:3) to prevent them becoming confluent, again by basic culture methods (Freshney 1987). Cell counts were made manually in 20 fields chosen randomly and the values at each time point, after allowing for changes due to subculturing, were aggregated. […] In the absence of added geneticin, no change in cell survival from either of the transgenic animals was observed.
(§2) The effects of 5-fluorocytosine (5FC) were also determined. 5-fluorocytosine at a concentration of 100 μg/ml had no effect on fibroblast cells derived from control animals or from the TG/TK/neo^r transgenic. In the cells derived from the CD2/neo^r transgenic animal, however, 94% of the originally-plated cells died, or were non-functional (as determined by their failure to exclude trypan blue) after 10 days culture in the presence of 5FC (Table 2).
(§3) Drugs were added at day 2 in culture. Values are related to the number of cells found in control cultures without drug additions at various times after plating, and allowing for dilutions resulting from passaging. Figures are the means of three separate determinations, the standard errors all being less than 15% of the mean.

The subject of experiment [2] is lung fibroblast cells derived from TG/TK/neo^r transgenic rats. In words: Survival of lung fibroblast cells from TG/TK/neo^r transgenic rats with drugs. Format: cell-based, rat. As to conditions: for Survival of lung fibroblast cells (related to number of cells in control cultures without drug): TG/TK/neo^r rat cells, drugs added at day 2, geneticin 400 μg/ml, 5FC 100 μg/ml. As to the method:
as §1, §2, §3

Experiment [3] relates to lung fibroblast cells derived from CD2/neo^r transgenic rats. The experiment can be described thus: Survival of lung fibroblast cells from CD2/neo^r transgenic rats with drugs. As to conditions: for Survival of lung fibroblast cells (related to number of cells in control cultures without drug): CD2/neo^r rat cells, drugs added at day 2, geneticin 400 μg/ml, 5FC 100 μg/ml. Format: cell-based, rat. As to the method:
as §1, §2, §3

Experiment [4] relates to thyroid cells derived from control rats. In words: Survival of thyroid cells from control rats with drugs. Format: cell-based, rat. Particulars: for Survival of thyroid cells (related to number of cells in control cultures without drug): control rat cells, drugs added at day 2, geneticin 400 μg/ml, ACG 10 μg/ml. The protocol: (§4) Thyroid cultures derived from the thyroid gland of adult CD2/neo^r, TG/TK/neo^r and control animals were produced by routine methods (Freshney, 1987). Twenty-four hours after plating, geneticin (400 μg/ml) was added to cultures originating from both types of transgenic and the control rats, and replaced every three days with fresh medium. When required, cells were subcultured (1:2) to prevent their becoming confluent. Cell counts were made manually in 20 fields chosen randomly, and the values at each time point, after allowing for changes due to subculturing, were aggregated (Table 3). […] Ten days later, cell counts were again made of 20 fields chosen at random. […] The results were as expected in view of the specific and non-specific expression of the positive and negative selection markers, in the TG/TK/neo^r and CD2/neo^r transgenics, respectively.
(§5) Drugs were added at day 2 in culture. Values are related to the number of cells found in control cultures without drug additions at various times after plating, and allow for dilutions resulting from passaging. Figures are the means of three separate determinations, the standard errors all being less than 15% of the mean.

For experiment [5], the system named is thyroid cells derived from TG/TK/neo^r transgenic rats. In words: Survival of thyroid cells from TG/TK/neo^r transgenic rats with drugs. Format: cell-based, rat. As to conditions: for Survival of thyroid cells (related to number of cells in control cultures without drug): TG/TK/neo^r rat cells, drugs added at day 2, geneticin 400 μg/ml, ACG 10 μg/ml. As to the method: as §4, §5

In experiment [6] the test system is thyroid cells derived from CD2/neo^r transgenic rats. In words: Survival of thyroid cells from CD2/neo^r transgenic rats with drugs. The class given is cell-based. Particulars: CD2/neo^r rat cells, drugs added at day 2, geneticin 400 μg/ml, ACG 10 μg/ml. The protocol: as §4, §5
Experiment [7] has as its system thyroid follicle cells. In words: Ablation of thyroid follicle cells in vivo. Also on record: species or system rat.
Setting [8] is: transgenic rats treated with ACG for 12 days.

Take `Nc1nc(=O)[nH]cc1F` [5FC, 5-fluorocytosine]: the “Effect of 5-fluorocytosine on fibroblast cells” value in experiment [1] (control animals, 100 μg/ml) was “had no effect”; in experiment [2] (TG/TK/neo^r transgenic, 100 μg/ml) it was “had no effect”. The “Survival of lung fibroblast cells (related to number of cells in control cultures without drug)” value in experiment [1] (day 1 in culture) is given as 101; in experiment [1] (day 3 in culture), 105; in experiment [1] (day 5 in culture), 98; in experiment [1] (day 7 in culture), 97; in experiment [1] (day 9 in culture), 93; in experiment [1] (day 11 in culture), 96. The “Survival of lung fibroblast cells (related to number of cells in control cultures without drug)” value in experiment [2] (day 1 in culture) was found to be 98; in experiment [2] (day 3 in culture), 96; in experiment [2] (day 5 in culture), 95; in experiment [2] (day 7 in culture), 92; in experiment [2] (day 9 in culture), 92; in experiment [2] (day 11 in culture) it was 93. Also, the “Survival of lung fibroblast cells (related to number of cells in control cultures without drug)” value in experiment [3] (day 1 in culture) is 94; in experiment [3] (day 3 in culture), 5; in experiment [3] (day 5 in culture), 3; in experiment [3] (day 7 in culture) it was 3; in experiment [3] (day 9 in culture), 4; in experiment [3] (day 11 in culture) it was 4. Also, in experiment [1] (control rats), the “Difference in cell counts between cultures in the absence and presence of 5FC” value is recorded as “no significant difference in cell counts”. Also, the “Originally-plated cells died, or were non-functional (failure to exclude trypan blue)” value in experiment [3] (CD2/neo^r transgenic, 100 μg/ml, after 10 days culture in the presence of 5FC) worked out at 94%.
On to `Nc1nc2c(ncn2COCCO)c(=O)[nH]1` [ACG, acycloguanosine], for which the “Survival of thyroid cells under ACG treatment” value is “the cells derived from the control animals did” in experiment [4] (control animals, 10 μg/ml ACG) and “did not survive ACG treatment” in experiment [5] (TG/TK/neo^r transgenic, 10 μg/ml ACG). Also, the “Survival of thyroid cells (related to number of cells in control cultures without drug)” value in experiment [4] (day 1 in culture) stood at 94; in experiment [4] (day 3 in culture), 97; in experiment [4] (day 5 in culture), 98; in experiment [4] (day 7 in culture), 91; in experiment [4] (day 9 in culture), 92; in experiment [4] (day 11 in culture), 102. In addition, the “Survival of thyroid cells (related to number of cells in control cultures without drug)” value in experiment [5] (day 1 in culture) was 98; in experiment [5] (day 3 in culture), 38; in experiment [5] (day 5 in culture), 12; in experiment [5] (day 7 in culture), 10; in experiment [5] (day 9 in culture) it was 8; in experiment [5] (day 11 in culture) it was 7. Further, the “Survival of thyroid cells (related to number of cells in control cultures without drug)” value turned out to be 98 in experiment [6] (day 1 in culture); 90 in experiment [6] (day 3 in culture); 93 in experiment [6] (day 5 in culture); 93 in experiment [6] (day 7 in culture); 97 in experiment [6] (day 9 in culture); 88 in experiment [6] (day 11 in culture). The “Effect on T3 and T4” value in experiment [7] (lower amounts of ACG per day) was “partial loss of T3 and T4”. In experiment [7] (transgenic adult female rats, 50 mg ACG per day i.p. for 5 days, seven days after the final injection, N=6), the “Serum level of T4” value is listed as “less than 2.5 nM”. Besides, the “Histochemical analysis of thyroid glands” value in experiment [7] (setting [8]) is listed as “almost complete loss of follicular cells”. Further, in experiment [7] (setting [8]), the “Thyroid gland weight, of the original weights” value was 7%.
